US6692880B2, “Electrophotographic toner with stable triboelectric properties” (Heidelberger Druckmaschinen AG, priority 2001, dated 2004)

What was measured:
[1] = pKa values measured by titrimetry; format: physicochemical; conditions: (a) values measured by titrimetry; read-out: pKa 1
Source text: Any acidic material having a pKa in the range of from about 2 to about 8 can be used as the first charge control agent. Acidic materials with pKa values of from 3 to 7 are particularly preferred. Acidic materials preferably contain a labile proton, such as a carboxylic, phenolic or sulfonic acid. More broadly an acid also includes compounds within the definition as proposed by G. N. Lewis, that is an acid is any material capable of accepting an electron pair from a donor molecule. The term pKa is defined as
where Ka is an inherent molecular property of an acidic compound and is called the acid dissociation constant. Ka is defined by the following equation; [formula]
In a practical sense the lower the pKa value the stronger the acid. Acids useful in this invention may have more than one acid function per molecule such as di- and tri-carboxylic or di- and tri-sulfonic acids. Further, multiple types of acid functional groups may be present in the useful molecule for example as in p-carboxybenzenesulfonic acid. One skilled in the art can readily propose other such acids based on the foregoing definitions.

[2] = Charge per mass of developers after exercise periods, MECCA device; format: physicochemical; conditions: clear polyester toner; for Fresh Developer 10 min exercise (charge values) / Fresh developer 2 min shake (charge values) / Rebuilt developer 2 min shake (charge values) / Rebuilt developer 10 min exercise (charge values): Binder C resin
[3] = obtained or extrapolated from tables in Morrison and Boyd; cited from earlier work
[4] = 0.2 pph added acid, LLT-101 resin, 2 pph Bontron E-84
[5] = 0.2 pph adipic acid added, 0 pph Bontron E-84, Binder C
[6] = 0.2 pph adipic acid added, 2 pph Bontron E-84, Binder C
[7] = 1 pph added acid, LLT-101 resin, 2 pph Bontron E-84
[8] = 1 pph adipic acid added, 0 pph Bontron E-84, Binder C
[9] = 1 pph adipic acid added, 2 pph Bontron E-84, Binder C
[10] = 5 pph added acid, LLT-101 resin, 2 pph Bontron E-84
[11] = 5 pph adipic acid added, 0 pph Bontron E-84, Binder C
[12] = 5 pph adipic acid added, 2 pph Bontron E-84, Binder C
[13] = 0.2 pph added acid, 2 pph Bontron E-84
[14] = 1 pph added acid, 2 pph Bontron E-84
[15] = 5 pph added acid, 2 pph Bontron E-84

CC1=NN(c2ccccc2)C(=O)C1 [MPP, 2,4-dihydro-5-methyl-2-phenyl-3H-pyrazol-3-one]
pKa [1]: 6.6

O=C(O)CCCCC(=O)O [Adipic acid]
Fresh Developer 10 min exercise (charge per mass) [2, 4]: −63.2 μC/g | Fresh developer 2 min shake (charge per mass) [2, 4]: −25.9 μC/g | Rebuilt developer 2 min shake (charge per mass) [2, 4]: −56.9 μC/g | Rebuilt developer 10 min exercise (charge per mass) [2, 4]: −57.7 μC/g | Fresh Developer 10 min exercise (charge per mass) [2, 5]: −30.1 μC/g | Fresh developer 2 min shake (charge per mass) [2, 5]: −10.0 μC/g | Rebuilt developer 2 min shake (charge per mass) [2, 5]: −7.1 μC/g | Rebuilt developer 10 min exercise (charge per mass) [2, 5]: −17.3 μC/g | Fresh Developer 10 min exercise (charge per mass) [2, 6]: −64.2 μC/g | Fresh developer 2 min shake (charge per mass) [2, 6]: −29.6 μC/g | Rebuilt developer 2 min shake (charge per mass) [2, 6]: −39.4 μC/g | Rebuilt developer 10 min exercise (charge per mass) [2, 6]: −49.6 μC/g | Fresh Developer 10 min exercise (charge per mass) [2, 7]: −40.9 μC/g | Fresh developer 2 min shake (charge per mass) [2, 7]: −23.7 μC/g | Rebuilt developer 2 min shake (charge per mass) [2, 7]: −27.1 μC/g | Rebuilt developer 10 min exercise (charge per mass) [2, 7]: −28.8 μC/g | Fresh Developer 10 min exercise (charge per mass) [2, 8]: −27.6 μC/g | Fresh developer 2 min shake (charge per mass) [2, 8]: −10.1 μC/g | Rebuilt developer 2 min shake (charge per mass) [2, 8]: −4.6 μC/g | Rebuilt developer 10 min exercise (charge per mass) [2, 8]: −12.5 μC/g | Fresh Developer 10 min exercise (charge per mass) [2, 9]: −41.8 μC/g | Fresh developer 2 min shake (charge per mass) [2, 9]: −30.4 μC/g | Rebuilt developer 2 min shake (charge per mass) [2, 9]: −17.1 μC/g | Rebuilt developer 10 min exercise (charge per mass) [2, 9]: −32.3 μC/g | Fresh Developer 10 min exercise (charge per mass) [2, 10]: −25.8 μC/g | Fresh developer 2 min shake (charge per mass) [2, 10]: −18.6 μC/g | Rebuilt developer 2 min shake (charge per mass) [2, 10]: −17.9 μC/g | Rebuilt developer 10 min exercise (charge per mass) [2, 10]: −24.5 μC/g | Fresh Developer 10 min exercise (charge per mass) [2, 11]: −28.4 μC/g | Fresh developer 2 min shake (charge per mass) [2, 11]: −10.4 μC/g | Rebuilt developer 2 min shake (charge per mass) [2, 11]: −5.3 μC/g | Rebuilt developer 10 min exercise (charge per mass) [2, 11]: −11.6 μC/g | Fresh Developer 10 min exercise (charge per mass) [2, 12]: −35.7 μC/g | Fresh developer 2 min shake (charge per mass) [2, 12]: −18.5 μC/g | Rebuilt developer 2 min shake (charge per mass) [2, 12]: −11.2 μC/g | Rebuilt developer 10 min exercise (charge per mass) [2, 12]: −29.2 μC/g | pKa 1 [3]: 4.5

C=C(CC(=O)O)C(=O)O [Itaconic acid]
Fresh Developer 10 min exercise (charge values) [2, 13]: −63.1 μC/g | Fresh developer 2 min shake (charge values) [2, 13]: −20.6 μC/g | Rebuilt developer 2 min shake (charge values) [2, 13]: −41.3 μC/g | Rebuilt developer 10 min exercise (charge values) [2, 13]: −49.7 μC/g | Fresh Developer 10 min exercise (charge values) [2, 14]: −33.7 μC/g | Fresh developer 2 min shake (charge values) [2, 14]: −13.6 μC/g | Rebuilt developer 2 min shake (charge values) [2, 14]: −10.2 μC/g | Rebuilt developer 10 min exercise (charge values) [2, 14]: −22.6 μC/g | Fresh Developer 10 min exercise (charge values) [2, 15]: −24.1 μC/g | Fresh developer 2 min shake (charge values) [2, 15]: −11.9 μC/g | Rebuilt developer 2 min shake (charge values) [2, 15]: −6.4 μC/g | Rebuilt developer 10 min exercise (charge values) [2, 15]: −18.7 μC/g

Nc1ccc(C(=O)O)cc1 [4-aminobenzoic acid]
Fresh Developer 10 min exercise (charge values) [2, 13]: −78.1 μC/g | Fresh developer 2 min shake (charge values) [2, 13]: −35.3 μC/g | Rebuilt developer 2 min shake (charge values) [2, 13]: −63.2 μC/g | Rebuilt developer 10 min exercise (charge values) [2, 13]: −72.1 μC/g | Fresh Developer 10 min exercise (charge values) [2, 14]: −84.8 μC/g | Fresh developer 2 min shake (charge values) [2, 14]: −40.0 μC/g | Rebuilt developer 2 min shake (charge values) [2, 14]: −56.8 μC/g | Rebuilt developer 10 min exercise (charge values) [2, 14]: −67.7 μC/g | Fresh Developer 10 min exercise (charge values) [2, 15]: −71.6 μC/g | Fresh developer 2 min shake (charge values) [2, 15]: −36.9 μC/g | Rebuilt developer 2 min shake (charge values) [2, 15]: −42.6 μC/g | Rebuilt developer 10 min exercise (charge values) [2, 15]: −60.5 μC/g

O=C(O)CCCC(=O)O [Glutaric acid]
Fresh Developer 10 min exercise (charge values) [2, 13]: −66.2 μC/g | Fresh developer 2 min shake (charge values) [2, 13]: −26.5 μC/g | Rebuilt developer 2 min shake (charge values) [2, 13]: −45.7 μC/g | Rebuilt developer 10 min exercise (charge values) [2, 13]: −58.1 μC/g | Fresh Developer 10 min exercise (charge values) [2, 14]: −42.5 μC/g | Fresh developer 2 min shake (charge values) [2, 14]: −16.6 μC/g | Rebuilt developer 2 min shake (charge values) [2, 14]: −15.6 μC/g | Rebuilt developer 10 min exercise (charge values) [2, 14]: −30.1 μC/g | Fresh Developer 10 min exercise (charge values) [2, 15]: −11.8 μC/g | Fresh developer 2 min shake (charge values) [2, 15]: −6.2 μC/g | Rebuilt developer 2 min shake (charge values) [2, 15]: −4.5 μC/g | Rebuilt developer 10 min exercise (charge values) [2, 15]: −13.3 μC/g | pKa 2 [3]: 5.4

CC(C)(C)c1cc(C(=O)O)cc(C(C)(C)C)c1 [3,5-di-t-butylbenzoic, 3,5-di-t-butylbenzoic acid]
pKa 1 [3]: 4.6

O=C(O)c1ccc(C(=O)O)cc1 [Terephthalic acid]
Fresh Developer 10 min exercise (charge values) [2, 13]: −58.9 μC/g | Fresh developer 2 min shake (charge values) [2, 13]: −25.5 μC/g | Rebuilt developer 2 min shake (charge values) [2, 13]: −45.3 μC/g | Rebuilt developer 10 min exercise (charge values) [2, 13]: −49.8 μC/g | Fresh Developer 10 min exercise (charge per mass) [2, 4]: −37.2 μC/g | Fresh developer 2 min shake (charge per mass) [2, 4]: −30.3 μC/g | Rebuilt developer 2 min shake (charge per mass) [2, 4]: −43.9 μC/g | Rebuilt developer 10 min exercise (charge per mass) [2, 4]: −35.6 μC/g | Fresh Developer 10 min exercise (charge values) [2, 14]: −46.9 μC/g | Fresh developer 2 min shake (charge values) [2, 14]: −24.4 μC/g | Rebuilt developer 2 min shake (charge values) [2, 14]: −34.4 μC/g | Rebuilt developer 10 min exercise (charge values) [2, 14]: −37.9 μC/g | Fresh Developer 10 min exercise (charge per mass) [2, 7]: −19.7 μC/g | Fresh developer 2 min shake (charge per mass) [2, 7]: −34.9 μC/g | Rebuilt developer 2 min shake (charge per mass) [2, 7]: −15.2 μC/g | Rebuilt developer 10 min exercise (charge per mass) [2, 7]: −12.9 μC/g | Fresh Developer 10 min exercise (charge values) [2, 15]: −13.8 μC/g | Fresh developer 2 min shake (charge values) [2, 15]: −28.3 μC/g | Rebuilt developer 2 min shake (charge values) [2, 15]: −16.5 μC/g | Rebuilt developer 10 min exercise (charge values) [2, 15]: −13.3 μC/g | Fresh Developer 10 min exercise (charge per mass) [2, 10]: −10.0 μC/g | Fresh developer 2 min shake (charge per mass) [2, 10]: −32.8 μC/g | Rebuilt developer 2 min shake (charge per mass) [2, 10]: −18.2 μC/g | Rebuilt developer 10 min exercise (charge per mass) [2, 10]: −5.8 μC/g

CCCCCCCCCCCC(=O)O [Lauric acid]
Fresh Developer 10 min exercise (charge values) [2, 13]: −88.1 μC/g | Fresh developer 2 min shake (charge values) [2, 13]: −44.3 μC/g | Rebuilt developer 2 min shake (charge values) [2, 13]: −60.1 μC/g | Rebuilt developer 10 min exercise (charge values) [2, 13]: −77.5 μC/g | Fresh Developer 10 min exercise (charge per mass) [2, 4]: −96.0 μC/g | Fresh developer 2 min shake (charge per mass) [2, 4]: −40.9 μC/g | Rebuilt developer 2 min shake (charge per mass) [2, 4]: −83.5 μC/g | Rebuilt developer 10 min exercise (charge per mass) [2, 4]: −110.1 μC/g | Fresh Developer 10 min exercise (charge values) [2, 14]: −104.5 μC/g | Fresh developer 2 min shake (charge values) [2, 14]: −43.7 μC/g | Rebuilt developer 2 min shake (charge values) [2, 14]: −69.6 μC/g | Rebuilt developer 10 min exercise (charge values) [2, 14]: −90.8 μC/g | Fresh Developer 10 min exercise (charge per mass) [2, 7]: −125.5 μC/g | Fresh developer 2 min shake (charge per mass) [2, 7]: −52.5 μC/g | Rebuilt developer 2 min shake (charge per mass) [2, 7]: −114.0 μC/g | Rebuilt developer 10 min exercise (charge per mass) [2, 7]: −123.0 μC/g | Fresh Developer 10 min exercise (charge values) [2, 15]: bicharged | Fresh developer 2 min shake (charge values) [2, 15]: −14.7 μC/g | Rebuilt developer 2 min shake (charge values) [2, 15]: −35.0 μC/g | Rebuilt developer 10 min exercise (charge values) [2, 15]: bicharged | Fresh Developer 10 min exercise (charge per mass) [2, 10]: bicharged | Fresh developer 2 min shake (charge per mass) [2, 10]: −8.7 μC/g | Rebuilt developer 2 min shake (charge per mass) [2, 10]: −12.1 μC/g | Rebuilt developer 10 min exercise (charge per mass) [2, 10]: −6.2 μC/g

CCOC(=O)/C=C/C(=O)O [fumaric acid monoethyl ester]
pKa [1]: 3.5

O=C(O)c1ccccc1C(=O)O [phthalic]
pKa 1 [3]: 3.0 | pKa 2 [3]: 5.4

O=C(O)c1ccccc1O [Salicylic acid]
Fresh Developer 10 min exercise (charge values) [2, 13]: −65.5 μC/g | Fresh developer 2 min shake (charge values) [2, 13]: −22.7 μC/g | Rebuilt developer 2 min shake (charge values) [2, 13]: −46.5 μC/g | Rebuilt developer 10 min exercise (charge values) [2, 13]: −62.0 μC/g | Fresh Developer 10 min exercise (charge values) [2, 14]: −50.5 μC/g | Fresh developer 2 min shake (charge values) [2, 14]: −21.0 μC/g | Rebuilt developer 2 min shake (charge values) [2, 14]: −25.5 μC/g | Rebuilt developer 10 min exercise (charge values) [2, 14]: −46.5 μC/g | Fresh Developer 10 min exercise (charge values) [2, 15]: −41.1 μC/g | Fresh developer 2 min shake (charge values) [2, 15]: −17.4 μC/g | Rebuilt developer 2 min shake (charge values) [2, 15]: −17.0 μC/g | Rebuilt developer 10 min exercise (charge values) [2, 15]: −42.8 μC/g
